Test results from patent US5306824A, “Biotinylated isocoumarins” (Georgia Tech Research Corporation, priority 1992, dated 1994).

Tests used:
PPE = PPE (Sus scrofa, UniProt P00772); assay: Elution of inhibited PPE from avidin-agarose column with NH2OH; assay type: biochemical, porcine
Method: Elution of inhibited PPE by 7-[6-(6-biotinylaminocaproyl)aminocaproyl]amino-4-chloro-3-methoxyisocoumarin from avidin-agarose column with NH2 OH.
PPE (1 mg, […]) was inhibited by biotinylated isocoumarin (0.5 mmole) in 0.1M Hepes, 0.5M NaCl, pH 7.5 buffer at 25° C. for 10 min, 7% of residual enzyme activity was found. Excess of inhibitors was removed by Sephadex G-25 column and the inhibited PPE was eluted with 0.1M acetate, 0.5M NaCl, pH 5.0 buffer and had 16% of enzyme activity. This inhibited enzyme solution was then applied on the avidin-agarose column and 34% of protein went through (measured by optical density at 280 nm). The column was washed with pH 5.0 acetate buffer, then eluted with 0.1M Hepes, 0.5M NaCl, and 0.5M NH2 OH, pH 7.5 buffer and 37% of protein was eluted out (measured by OD280) from the column. In these protein fractions, 40% of PPE activity was detected.

[1] = target: T1, human recombinant (HR) granzyme A (Homo sapiens, UniProt P12544); assay: Inactivation of human recombinant granzyme A by biotin-isocoumarins (incubation method); assay type: biochemical; settings: inhibitor 160-210 μM, pH 7.5, 25° C.
T1 sequence (P12544 29-262): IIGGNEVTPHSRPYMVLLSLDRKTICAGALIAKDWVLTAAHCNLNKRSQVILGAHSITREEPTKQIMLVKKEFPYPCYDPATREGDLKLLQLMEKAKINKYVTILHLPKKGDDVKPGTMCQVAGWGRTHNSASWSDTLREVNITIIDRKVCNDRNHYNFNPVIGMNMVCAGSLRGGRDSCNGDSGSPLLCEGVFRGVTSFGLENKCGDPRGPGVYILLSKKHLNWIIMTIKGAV
Method: (§1) Inactivation rates of serine proteases by substituted isocoumarins were measured by the incubation method. An aliquot of inhibitor (25 or 50 μl) in Me2 SO was added to a buffered enzyme solution (0.01-2.3 μM) to initiate the inactivation. Aliquots (50-100 μl) were withdrawn at various intervals and the residual enzymatic activity was measured. Me2 SO concentration in the reaction mixture was 8-12% (v/v). 0.1M Hepes, 0.5M NaCl, pH 7.5 buffer was utilized for the assays of chymotrypsin, cathepsin G (cat G), porcine pancreatic elastase (PPE), human leukocyte elastase (HLE) and rat granule serine proteases. 0.1M Hepes, 0.01M CaCl2, pH 7.5 buffer was utilized for the assays of trypsin and human recombinant (HR) granzyme A. The inhibitor concentrations are shown in the Tables I and II. Peptide nitroanilides with appropriate sequence were used as substrates for various serine proteases. All peptide 4-nitroanilide hydrolysis was measured at 410 nm (ε410 =8800M^-1 cm^-1; Erlanger et al., Arch. Biochem. Biophys. 95, pp 271-278 (1961), incorporated herein by reference). Peptide thioester hydrolysis rates were measured with assay mixtures containing 4,4'-dithiodipyridine (ε324 =19800M^-1 cm^-1; Grasetti & Murray, Arch. Biochem. Biophys. 119, pp. 41-49 (1967), incorporated herein by reference). First order inactivation rate constant (kobs) were obtained from plots of ln (vt /vo) vs time, and the correlation coefficients were greater than 0.98.
(§2) ^a Inhibition was measured in 0.1 M Hepes, 0.5 M NaCl (or 0.01 M
(§3) CaCl2), pH 7.5 buffer, 5-10% Me2 SO and at 25° C.
ZGlu-Phe-Arg-NA (0.032 mM) was a substrate for trypsin. ZArg-SBzl (0.120
mM) was a substrate for human recombinant (HR) granzyme A.
^g Inhibitor concentrations were 160-210 μM.
(§4) ^h No inhibition after 10 min of incubation of inhibitor and enzyme.
(§5) ^i Percentage of inhibition after 10 min of incubation of inhibitor

[2] = target: T2, human leukocyte elastase (HLE) (Homo sapiens, UniProt P08246); assay: Inactivation of human leukocyte elastase by biotin-isocoumarins (incubation method); assay type: biochemical; settings: inhibitor 1.6-210 μM; pH 7.5, 25° C.; read-out: kobs/[I] HLE
T2 sequence (P08246 30-267): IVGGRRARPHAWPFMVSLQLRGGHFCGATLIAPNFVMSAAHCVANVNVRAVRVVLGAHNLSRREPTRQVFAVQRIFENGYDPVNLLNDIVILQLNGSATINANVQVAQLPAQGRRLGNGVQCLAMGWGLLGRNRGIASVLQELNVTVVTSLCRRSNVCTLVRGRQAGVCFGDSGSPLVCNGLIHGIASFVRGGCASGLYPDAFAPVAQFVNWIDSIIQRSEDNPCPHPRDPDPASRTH
Method: as §1, §2, §3
(§6) G. MeOSuc-Ala-Ala-Pro-Val-NA (0.24-0.47 mM) and SucAla-Ala-Ala-NA
(0.29-0.48 mM) were used as the substrate for HLE and PPE respectively.
^d Inhibitor concentrations were 1.6-210 μM.

cathepsin G (cat G) = target: T3, cathepsin G (cat G) (Homo sapiens, UniProt P08311); assay: Inactivation of cathepsin G by biotin-isocoumarins (incubation method); assay type: biochemical; settings: inhibitor 75-400 μM, pH 7.5, 25° C.
T3 sequence (P08311 21-255): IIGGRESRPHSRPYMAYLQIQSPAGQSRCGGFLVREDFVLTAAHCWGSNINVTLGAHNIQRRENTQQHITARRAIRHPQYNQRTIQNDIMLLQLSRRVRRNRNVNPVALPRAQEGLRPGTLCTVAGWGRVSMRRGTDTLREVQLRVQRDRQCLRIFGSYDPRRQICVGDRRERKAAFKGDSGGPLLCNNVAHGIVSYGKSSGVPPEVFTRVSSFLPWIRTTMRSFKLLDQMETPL
Method: as §1, §2, §3
SucVal-Pro-NA (0.48 mM) was used as the substrate for chymotrypsin and ca
as §6
^c Inhibitor concentrations were 75-400 μM.
as §4, §5

Sequence of PPE (P00772 27-266): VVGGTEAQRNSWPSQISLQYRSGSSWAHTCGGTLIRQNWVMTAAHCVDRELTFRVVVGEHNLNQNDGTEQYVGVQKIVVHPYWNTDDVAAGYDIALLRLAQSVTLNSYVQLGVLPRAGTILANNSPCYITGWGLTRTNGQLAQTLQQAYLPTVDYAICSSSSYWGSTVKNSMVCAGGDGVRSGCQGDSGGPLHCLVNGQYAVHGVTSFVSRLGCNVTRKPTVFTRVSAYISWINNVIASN

enzyme activity of inhibited PPE after Sephadex G-25 removal of excess inhibitor (PPE; eluted with 0.1M acetate, 0.5M NaCl, pH 5.0) [%]	PPE activity detected in eluted protein fractions (PPE; fractions eluted with 0.5M NH2OH) [%]	residual enzyme activity of PPE after inhibition (PPE; pH 7.5 buffer, 25° C., 10 min) [%]	Percentage of inhibition of HR Granzyme A after 10 min of incubation of inhibitor and enzyme [1] [%]	kinact/KI [2] [M⁻¹ s⁻¹]	kinact/KI (cathepsin G (cat G); NI = no inhibition after 10 min of incubation, read-out: kobs/[I] Cat. G) [M⁻¹ s⁻¹]	Percentage of inhibition of Cat. G after 10 min of incubation of inhibitor and enzyme (cathepsin G (cat G); 10 min) [%]	SMILES
16	40	7	5	37500	2.2		COc1oc(=O)c2cc(NC(=O)CCCCCNC(=O)CCCCCNC(=O)CCCCC3SCC4NC(=O)NC43)ccc2c1Cl (stereo not shown) [Compound 6, 7-[6-(6-biotinylaminocaproyl)aminocaproyl]-amino-4-chloro-3-methoxyisocoumarin]
				230			O=C(CCCCCNC(=O)CCCCC1SCC2NC(=O)NC21)NCCCCCC(=O)Nc1ccc2c(Cl)c(OCCc3ccccc3)oc(=O)c2c1 (stereo not shown) [Compound 7, 7-[6-(6-biotinylaminocaproyl)aminocaproyl]-amino-4-chloro-3-(2-phenylethoxy)-isocoumarin]
			18	6.6		19	O=C(CCCCC1SCC2NC(=O)NC21)NCCNC(=O)CNC(=O)Nc1ccc2c(Cl)c(OCCc3ccccc3)oc(=O)c2c1 (stereo not shown) [Compound 8, 7-biotin-NH(CH2)2 NH--COCH2 NHCONH-4-chloro-3-(2-phenylethoxy)isocoumarin]
